How the values were obtained:
[1] = system: isolated one-day-old chicks; assay: chick call test (distress call activation in isolated chicks); assay type: in vivo; details: for ED150: Gallus gallus, ip
Text: The call frequency of isolated one-day-old chicks which decreases during the course of the test is taken as an experimental behavioural model for manifestations of resignation in depression. […] Neurol. Psychiat.

Tetrabenazine = Tetrabenazine antagonism (ptosis alleviation, mouse); assay type: in vivo; details: Table 1
cholinergic function = assay: Effect on cholinergic function; details: result in words
[2] = system: adrenergic, serotonergic receptors; assay: Receptor bonding (adrenergic, serotonergic); assay type: binding; details: for Receptor bonding: result in words
LD50, mouse, oral route = details: in vivo, by oral route

In the case of “1-acetamido-2-pyrrolidinone [Compound B, reference compound]”, the “Chick call test ED150” value ([1]; i.p., Table 1) is reported as over 160 mg/kg, the Tetrabenazine antagonism (ptosis alleviation, mouse) (Tetrabenazine) is reported as over 640 mg/kg and the “Effect on cholinergic function” value (cholinergic function) is reported as “none”. For the same molecule, the Receptor bonding [2] was “none”.
`O=C1CC(CN2CCOCC2)CN1Cc1ccc(F)cc1` (centres unmarked) [1-(4-Fluorobenzyl)-4-(morpholinomethyl)-pyrrolidin-2-one] showed an ED150 ([1]; Table II) of 80 mg/kg.
With `COc1ccc(CN2CC(CN)CC2=O)cc1` (centres unmarked) [C, 1-(4-Methoxybenzyl)-4-aminomethyl-pyrrolidin-2-one] the ED150 ([1]; Table II) was 25 mg/kg.
`NCC1CC(=O)N(Cc2ccccc2)C1` (centres unmarked) [Compound A, 1-benzyl-4-aminomethyl-pyrrolidin-2-one] gave an ED150 ([1]; Table 1) of 40 mg/kg, a Tetrabenazine antagonism (ptosis alleviation, mouse) (Tetrabenazine) of 100 mg/kg and an LD50 (LD50, mouse, oral route) of over 2000 mg/kg. For the same molecule, the “Effect on cholinergic function” value (cholinergic function) was “Demand”, the IC50 [2] was over 10 µM and the Receptor bonding [2] was “none”.
For `NCC1CC(=O)N(Cc2ccc(F)cc2)C1` (centres unmarked) [D, 1-(4-Fluorobenzyl)-4-aminomethyl-pyrrolidin-2-one], the ED150 ([1]; Table II) was 20 mg/kg.
`CN1CCN(CC2CC(=O)N(Cc3ccccc3)C2)CC1` (centres unmarked) [H, 1-Benzyl-4-(N-methylpiperazinylmethyl)-pyrrolidin-2-one] showed an ED150 ([1]; Table II) of 18 mg/kg.
In the case of `CCN(CC)CC1CCC(=O)N1Cc1ccccc1` (centres unmarked) [J, 1-Benzyl-5-diethylaminomethyl-pyrrolidin-2-one], the ED150 ([1]; Table II) is reported as 0.01 mg/kg.
Work on `O=C1CCC(CN2CCCC2)N1Cc1ccccc1` (centres unmarked) [K, 1-Benzyl-5-pyrrolidinomethyl-pyrrolidin-2-one] yielded an ED150 ([1]; Table II) of 0.1 mg/kg.
For `CN(C)CC1CCC(=O)N1Cc1ccc(Cl)cc1` (centres unmarked) [L, 1-(p-chlorobenzyl)-5-dimethylaminomethyl-pyrrolidin-2-one], the ED150 ([1]; Table II) was 0.1 mg/kg.

Source: patent US4954516A, “Use of 1-benzyl-aminoalkyl-pyrrolidinones as antidepressants” (Boehringer Ingelheim KG, priority 1986, dated 1990)
